ChEMBL document CHEMBL1201862, “PubChem BioAssay data set” (2004)
The source made the active and inactive calls.

Experiments:
[1] = P. falciparum Dd2 growth inhibitors, dose response, SYBR Green, cherry-picked samples (AID 1159567); assay type: functional, cell-based
Protein RecA = target: T1, Protein RecA (Mycobacterium tuberculosis, UniProt P9WHJ3); experiment: Fluorescence Cell-Free Homogeneous Dose Retest to Identify Inhibitors of RecA-Intein Splicing Activity. [Related pubchem assays (depositor defined):AID2097, AID2223, AID489010, AID492950]; assay type: functional
T1 sequence (P9WHJ3 whole entry): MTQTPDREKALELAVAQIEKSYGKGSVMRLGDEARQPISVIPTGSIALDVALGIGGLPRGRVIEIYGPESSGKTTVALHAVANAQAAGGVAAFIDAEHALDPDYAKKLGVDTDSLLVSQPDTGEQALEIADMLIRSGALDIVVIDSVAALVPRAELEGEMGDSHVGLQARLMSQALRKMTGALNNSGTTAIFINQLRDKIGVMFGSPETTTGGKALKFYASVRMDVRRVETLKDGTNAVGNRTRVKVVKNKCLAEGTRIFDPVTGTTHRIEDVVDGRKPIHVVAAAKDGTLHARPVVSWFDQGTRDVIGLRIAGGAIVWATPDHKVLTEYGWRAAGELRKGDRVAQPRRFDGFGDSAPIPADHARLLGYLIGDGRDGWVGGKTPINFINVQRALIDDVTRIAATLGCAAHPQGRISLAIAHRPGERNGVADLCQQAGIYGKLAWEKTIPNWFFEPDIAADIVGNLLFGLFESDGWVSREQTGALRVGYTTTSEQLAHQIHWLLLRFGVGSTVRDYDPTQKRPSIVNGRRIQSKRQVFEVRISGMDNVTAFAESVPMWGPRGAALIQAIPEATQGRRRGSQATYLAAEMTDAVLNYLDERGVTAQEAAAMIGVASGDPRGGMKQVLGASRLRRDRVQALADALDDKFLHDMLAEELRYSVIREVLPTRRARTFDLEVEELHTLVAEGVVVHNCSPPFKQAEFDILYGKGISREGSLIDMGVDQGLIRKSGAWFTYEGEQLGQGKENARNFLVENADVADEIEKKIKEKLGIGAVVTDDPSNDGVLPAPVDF

[2] = target: T2, Replicative DNA helicase DnaB (Mycobacterium tuberculosis, UniProt P9WMR3); experiment: DnaB intein splicing inhibitors, dose response, biochemical, cell-free fluorescence (AID 449749); assay type: functional
T2 sequence (P9WMR3 whole entry): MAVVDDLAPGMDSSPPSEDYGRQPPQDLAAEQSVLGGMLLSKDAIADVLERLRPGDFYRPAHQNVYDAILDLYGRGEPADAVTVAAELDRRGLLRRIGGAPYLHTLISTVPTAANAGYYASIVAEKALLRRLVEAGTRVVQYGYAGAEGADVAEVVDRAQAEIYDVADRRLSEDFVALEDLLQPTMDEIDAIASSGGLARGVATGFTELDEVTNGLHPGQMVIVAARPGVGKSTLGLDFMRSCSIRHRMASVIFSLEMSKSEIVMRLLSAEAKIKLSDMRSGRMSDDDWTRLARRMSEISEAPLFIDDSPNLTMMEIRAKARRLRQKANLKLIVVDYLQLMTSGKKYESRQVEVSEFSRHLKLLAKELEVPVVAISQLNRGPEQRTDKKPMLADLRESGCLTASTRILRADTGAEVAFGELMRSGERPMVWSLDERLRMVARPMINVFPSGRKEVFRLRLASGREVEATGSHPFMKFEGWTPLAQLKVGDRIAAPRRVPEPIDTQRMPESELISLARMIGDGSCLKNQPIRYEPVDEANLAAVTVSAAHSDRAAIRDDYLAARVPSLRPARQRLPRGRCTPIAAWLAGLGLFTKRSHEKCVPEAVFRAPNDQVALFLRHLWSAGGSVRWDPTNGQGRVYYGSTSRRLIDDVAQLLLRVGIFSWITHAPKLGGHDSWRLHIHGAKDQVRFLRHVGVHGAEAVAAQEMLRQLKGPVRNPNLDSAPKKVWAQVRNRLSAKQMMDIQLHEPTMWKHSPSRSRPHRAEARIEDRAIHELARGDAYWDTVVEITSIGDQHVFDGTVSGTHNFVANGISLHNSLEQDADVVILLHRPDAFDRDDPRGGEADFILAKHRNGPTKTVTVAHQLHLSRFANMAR

[3] = target: T3, Heat shock factor protein 1 (Mus musculus, UniProt P38532); experiment: enhancement of HSF1-driven luciferase signal – cell-based, NIH3T3, luminescence, dose retest, confirmation (AID 435004); assay type: functional;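 also: stress induced by proteasome inhibitor MG132 added 30 min after compound; luciferase reporter driven by HSF1 response element in NIH3T3 cells; actives raise luminescence as potentiators of the MG132 stress response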
T3 sequence (P38532 whole entry): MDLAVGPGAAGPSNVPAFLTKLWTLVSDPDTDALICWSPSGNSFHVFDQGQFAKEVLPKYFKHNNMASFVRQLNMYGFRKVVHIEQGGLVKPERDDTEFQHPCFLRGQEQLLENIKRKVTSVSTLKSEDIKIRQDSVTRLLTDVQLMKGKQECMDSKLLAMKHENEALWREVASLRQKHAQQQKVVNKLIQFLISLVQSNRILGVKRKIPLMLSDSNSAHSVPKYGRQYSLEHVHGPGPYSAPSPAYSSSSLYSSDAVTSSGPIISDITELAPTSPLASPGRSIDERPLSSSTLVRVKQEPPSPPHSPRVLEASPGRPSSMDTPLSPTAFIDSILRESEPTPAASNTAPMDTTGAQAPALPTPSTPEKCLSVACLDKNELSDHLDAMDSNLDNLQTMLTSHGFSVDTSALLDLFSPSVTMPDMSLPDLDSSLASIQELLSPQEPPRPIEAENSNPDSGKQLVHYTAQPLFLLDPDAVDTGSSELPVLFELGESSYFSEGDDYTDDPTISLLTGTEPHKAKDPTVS

[4] = microbe, parasite or virus in culture; assay type: functional; details: Mycobacterium tuberculosis
[5] = Luminescence Cell-Based Dose Retest to Confirm Inhibitors of Cancer Stem Cells. [Related pubchem assays (depositor defined):AID2717, AID2721]; assay type: functional; details: Homo sapiens
Streptokinase A = target: T4, Streptokinase A (Streptococcus pyogenes serotype M1, UniProt P10520); experiment: viability-normalized secreted streptokinase activity reduction – plasminogen activation absorbance, OD405, dose response (AID 1914); assay type: functional, Streptococcus pyogenes M1 GAS;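 also: secreted streptokinase activity via plasminogen activation per viability signal from cell pellet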
T4 sequence (P10520 whole entry): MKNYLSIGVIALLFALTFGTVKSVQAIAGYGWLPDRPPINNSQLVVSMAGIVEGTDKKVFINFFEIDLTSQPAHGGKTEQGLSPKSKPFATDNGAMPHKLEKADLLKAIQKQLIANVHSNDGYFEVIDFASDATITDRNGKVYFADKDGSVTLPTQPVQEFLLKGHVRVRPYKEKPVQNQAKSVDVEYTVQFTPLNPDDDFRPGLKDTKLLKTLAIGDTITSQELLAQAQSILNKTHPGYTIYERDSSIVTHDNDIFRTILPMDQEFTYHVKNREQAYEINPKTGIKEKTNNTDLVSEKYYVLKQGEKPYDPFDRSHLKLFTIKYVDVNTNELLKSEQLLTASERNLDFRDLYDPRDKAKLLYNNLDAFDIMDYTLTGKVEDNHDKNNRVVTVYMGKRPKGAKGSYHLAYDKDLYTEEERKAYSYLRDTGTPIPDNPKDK

Streptococcus = experiment: GAS UMAA2166 growth inhibition – luminescence, BacTiterGlo, counter-screen for streptokinase expression inhibitor project, dose response (AID 1915); assay type: functional, organism-based;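 also: potency for reduction of bacterial viability or growth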
[6] = tested on: Streptococcus sp. 'group A'; experiment: Streptococcus pyogenes SK(-)GAS viability under kanamycin – luminescence, BacTiterGlo, confirmation, counter-screen for streptokinase expression inhibitor project, dose response (AID 1900); assay type: functional, organism-based
INS1 = experiment: INS-1E survival protection against cytokine death – cell-based, luminescence, retest, dose response (AID 449756); assay type: functional; details: Rattus norvegicus;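 also: cell death triggered by IL-1 beta plus TNF-alpha plus IFN-gamma mixture; protective hits raise ATP signal compared with cytokine alone wells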
[7] = NIH-3T3 fibroblast cytotoxicity, dose response, cytotoxicity control, cell-based, fluorescence, Alamar Blue, secondary assay (AID 2327); assay type: functional;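 also: NIH-3T3 mouse fibroblasts cultured with fluconazole at 8 µg/mL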
[8] = viability of PTEN-deleted HCT116 cells – cell-based, HCT116 PTEN knockout, dose response (AID 1047); assay type: functional;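 also: HCT116 colon tumor cells with PTEN knocked out; cells exposed to compound for 60 hours before readout; potency for loss of cell viability measured by luminescence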
[9] = fluconazole-exposed Candida albicans growth modulators – fluorescence, retest, confirmation (AID 2467); assay type: functional, cell-based
[10] = NIH3T3 cell viability loss – ATP luminescence, mouse fibroblasts, counter-screen, dose response (AID 2010); assay type: functional, cell-based;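 also: cells exposed to compound for about 90 hours before reading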
[11] = viability of HCT116 lacking mutant beta-catenin – cell-based, human colon tumor, dose response (AID 1045); assay type: functional;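 also: HCT116 colon tumor cells with beta catenin knocked out; cells exposed to compound for 60 hours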
[12] = Trypanosoma cruzi growth suppression in host cells – NIH3T3 host cells, beta-gal luminescence, confirmation (AID 2044); assay type: functional, cell-based;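 also: intracellular parasites grown in NIH/3T3 mouse fibroblasts as host cells; luminescent beta-galactosidase reporter signal from transgenic T. cruzi replicating inside host cells; inhibitors lower the luminescence signal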
[13] = reduction of Shn3 3'UTR-driven luciferase in osteoblasts – cell-based, Clone20 osteoblasts, firefly luciferase, cherry-picked, dose response (AID 624132); assay type: functional;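 also: firefly luciferase luminescence from reporter carrying the Shn3 3'UTR in osteoblasts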

## CCCC(=O)N1CCC2(CC1)CN(Cc1cccnc1)[C@@H](CO)c1[nH]c3cc(OC)ccc3c12
[1]
  AC50: 5.19 µM (active)

## O=C1NC(c2ccc(-c3ccccc3[N+](=O)[O-])o2)C(C(=O)c2ccc(F)cc2)C(O)(C(F)(F)F)N1 (stereo not given)
Protein RecA
  EC50: > 380 µM (inconclusive)
[2]
  AC50: 13.3 µM (active)

## NC(=O)CC[C@@H]1NC(=O)[C@H](CO)NC(=O)c2cc([N+](=O)[O-])cc(I)c2NCC[C@@H](C(N)=O)NC1=O
Protein RecA
  EC50: 13.3 µM (active)
[2]
  AC50: 47.5 µM (active)

## CCOc1cc(/C=C2/C(=N)N3C(=NC2=O)SN=C3S(=O)(=O)C(C)C)ccc1OC(=O)c1ccco1
Protein RecA
  EC50: 18.6 µM (active)
[2]
  AC50: > 380 µM (inactive)

## COC(=O)C(C)Sc1ncnc2c1nnn2-c1ccc(F)cc1 (stereo not given)
[3]
  EC50: 11.6 µM (active)
Protein RecA
  EC50: 5.09 µM (active)
[2]
  AC50: 5.57 µM (active)

## O=C(c1cccc(-c2ccco2)c1)N1CCCC(N2CCN(c3ccc(F)cc3)CC2)C1 (stereo not given)
[4]
  CC50: > 40 µM (active)

## Cc1cc(NC(=O)c2cc(-c3ccncc3)nc3c(C)cccc23)no1
[4]
  CC50: 9.08 µM (active)

## CCn1c(COc2cccc3ccccc23)nnc1SCC(N)=O
Protein RecA
  EC50: > 380 µM (inactive)
[2]
  AC50: 273 µM (active)

## CC(C)(C)[C@@H]1CCC(=O)N(CC[C@H](Sc2ccccc2)c2ccccc2)CC1
[5]
  AC50: 3.92 µM (active)
Streptokinase A
  EC50: > 150 µM (not active)
Streptococcus
  EC50: 5.87 µM (active)
[6]
  EC50: 6.49 µM (active)

## CC(C)S(=O)(=O)C1=NSC2=NC(=O)/C(=C\c3ccc(OC(=O)c4ccco4)cc3)C(=N)N21
Protein RecA
  EC50: 10.9 µM (active)
[2]
  AC50: 17 µM (active)

## CC1=NN(c2ccc(N)cc2)C(=O)C1
Protein RecA
  EC50: 1.78 µM (active)
[2]
  AC50: 2.41 µM (active)

## CCCCCCSc1cccc(-c2nc3ccccn3c2NCc2ccccc2)c1
[5]
  AC50: 6.43 µM (active)
INS1
  AC50: 7.57 µM (active)

## CCOC(=O)CN=C(S)n1cnc(N)n1
[4]
  CC50: > 40 µM (active)

## C[C@@H]1CN([C@@H](C)CO)C(=O)c2c(c3ccccc3n2C)-c2ccccc2CO[C@H]1CN(C)C(=O)Nc1ccc(-c2ccccc2)cc1
[1]
  AC50: 3.77 µM (active)

## Cc1nn(Cc2ccccc2)c2c1C(c1cccnc1)C(C#N)=C(N)O2 (stereo not given)
Protein RecA
  EC50: 2.78 µM (active)
[2]
  AC50: 8.8 µM (active)

## C/C=C/c1ccc([C@@H]2[C@@H](CO)N(CC3CCCC3)C23CN(S(=O)(=O)CC)C3)cc1
[1]
  AC50: 4.7 µM (active)

## C[C@H]1CN([C@@H](C)CO)C(=O)c2cc(NC(=O)Cc3cn(C)c4ccccc34)ccc2O[C@H]1CN(C)S(=O)(=O)c1cccs1
[1]
  AC50: 6.48 µM (active)

## Cc1cc(C(=O)N/N=C\C(Br)=C\c2ccccc2)c(C)o1
[4]
  CC50: > 40 µM (active)

## COc1ccc2c3c([nH]c2c1)[C@H](CO)N(Cc1ccccc1Cl)CC31CN(C(=O)C2CC2)C1
[1]
  AC50: 5.65 µM (active)

## CCCCCCCCCCC[C@@H](C[C@@H]1OC(=O)[C@H]1CCCCCC)OC(=O)[C@H](CC(C)C)NC=O [ORLISTAT]
[4]
  CC50: 37.9 µM (active)

## Cc1nc2c(-c3ccc(F)cc3)c(C)nn2c(O)c1Cl
Protein RecA
  EC50: 11 µM (active)
[2]
  AC50: 31.1 µM (active)

## COc1ccc2c3c([nH]c2c1)[C@@H](CO)N(Cc1ccccc1F)CC31CN(C(=O)C2CCC2)C1
[1]
  AC50: 7.2 µM (active)

## Cc1ccc(C(C(=O)NCC2CCCO2)N(Cc2ccccc2)C(=O)c2ccc(-c3ccccc3)[nH]2)o1 (stereo not given)
[4]
  CC50: > 40 µM (active)

## O=C(Cc1ccncc1)N1CC[C@@H]2[C@@H](CO)Nc3ccc(-c4cccc(F)c4)cc3[C@@H]21
[1]
  AC50: 3.43 µM (active)

## O=c1cc(-c2c(F)c(F)c(F)c(F)c2F)oc2c(F)c(F)c(F)c(F)c12
[7]
  EC50: 2.66 µM (inconclusive)
Protein RecA
  EC50: 2.92 µM (active)
[8]
  EC50: 5.95 µM (active)
[2]
  AC50: 7.17 µM (active)
[9]
  EC50: 0.52 µM (active)
[10]
  EC50: 1.04 µM (active)
[11]
  EC50: 3.37 µM (active)
[12]
  EC50: 0.663 µM (active)

## C/C(CC(=O)Nc1ccc(Cl)cc1C(F)(F)F)=N\NC(N)=S
[4]
  CC50: > 40 µM (active)

## CNS(=O)(=O)c1cccc(C(=O)OCc2cc(C(C)=O)ccc2OC)c1
[13]
  AC50: 11.2 µM (active)

## Cc1ccc2nc(-c3cccs3)oc(=O)c2c1
Protein RecA
  EC50: 60.5 µM (active)
[2]
  AC50: 117 µM (active)

## C[C@@H]1CN([C@@H](C)CO)C(=O)c2c(c3ccccc3n2C)-c2ccccc2CO[C@H]1CN(C)Cc1cccc(C(F)(F)F)c1
[1]
  AC50: 3.05 µM (active)

## COc1ccc(S(=O)(=O)c2cnc3ccccc3n2)cc1
Protein RecA
  EC50: 16.4 µM (active)
[2]
  AC50: 54.1 µM (active)

## COc1ccc(-c2ccc([C@@H]3[C@@H](CO)N4C(=O)CN(C(=O)C5CCCC5)C[C@@H]34)cc2)cc1
[1]
  AC50: 4.83 µM (active)

## CC(C(=O)NC(=O)NC1CCCCC1)N(C)CC(=O)Nc1ccc(F)c(F)c1F (stereo not given)
[4]
  CC50: 25.8 µM (active)
